Experimental findings from patent US3969529A, “Phenoxyacetic acid derivatives as diuretic agents” (C.E.R.P.H.A., priority 1969, dated 1976) are described below.

Each structure is given as a SMILES string.

One data set concerns mice. The data set can be described thus: Diuretic activity in mice. The format is in vivo. How it is done:
The three compounds CE 3598, CE 3624, CE 3649 can be shown to be diuretic at doses of from 1 - 50 mg/kg for the first.

For data set [1], the system named is dogs anaesthetized with mebubarbital. Nature of the data set: Diuretic activity in dogs anaesthetized with mebubarbital. The format is in vivo. As to the method: The doses injected were of the order of 5 - 30 mg/kg. In most cases, diuresis was decupled for more than 2 hours.
The size of the increase may reach 6 to 7 times, even 10 times, the base diuresis.
In the case of intraduodenal injection or administration per os, the active doses are relatively the same as by intravenous administration.

For the next data set, the system named is dogs. The data set can be described thus: Tolerance in dogs, 5 days. To be noted: 50 to 200 mg/kg via the digestive tract, three dogs. The format is in vivo.
A further data set relates to non-anaesthetized dogs. Nature of the data set: Diuretic activity in non-anaesthetized dogs after hydration. The format is in vivo. How it is done:
After hydration with 500 ml physiological water and calculation of the diuresis for 2 hours, CE 3624, CE 3649 and CE 3598 were administered per os at doses of from 10 to 100 mg/kg.
For CE 3624 at 20 mg/kg, the diuresis was quintupled for 3 hours; the same result was obtained at 10 mg/kg. For CE 3649, at the same doses, the diuresis was only doubled. The doses of CE 3598 administered per os were 25,50 and 100 mg/kg. The increase in diuresis was effective during the first hour, and still notable 3 hours after administration of the product.

A short description of data set [2]: Acute toxicity in mice (mortality after 24 h intravenous, 48 h per os). To be noted: mouse, in vivo; for LD50 at 24 h: intravenous, mortality after 24 hours; for LD50 at 48 h: po, per os, mortality after 48 hours. As to the method: The three compounds were administered in the usual way to lots of 10 male mice of average weight 20 gm. Mortality was assessed after 24 hours for the intravenous toxicity and after 48 hours for toxicity per os.

Setting [3] is: per os, 10 to 100 mg/kg, after hydration with 500 ml physiological water.

For orientation: LD50 means the dose at which mortality reaches 50%. Read a low LD50 as a more toxic substance. Take `O=C(O)COc1ccc(C(=O)c2ccco2)c(Cl)c1Cl` [CE 3598, 4-(2-furylketo) 2,3-dichloro phenoxyacetic acid]: the diuretic activity entry with mice is reported as “diuretic”. The “increase in diuresis 2 hours after injection” value in data set [1] (intravenous) is given as “still perceptible”. Further, in data set [1] (intravenous, first 15 minutes), the “dose provoking substantial diuretic action” value is ~10 mg/kg. For the same molecule, in data set [1] (intravenous, may reach even), the “size of the increase over base diuresis, maximum” value turned out to be 10 times. Moreover, in data set [1] (intravenous, of the order of 10 mg/kg), the “diuretic action in the first 15 minutes” value is “substantial diuretic action”. For the same molecule, the “symptoms indicating injurious activity” value in the data set on dogs was “no symptoms which would indicate any injurious activity”. Also, the increase in diuresis entry with non-anaesthetized dogs (setting [3]) was “strongly increased”. Also, in the data set with non-anaesthetized dogs (per os, 25, 50 and 100 mg/kg), the “increase in diuresis 3 hours after administration” value is “still notable” and the “increase in diuresis during the first hour” value is “effective”. In data set [2], the LD50 at 24 h turned out to be 450 mg/kg and the LD50 at 48 h was 1500 mg/kg.
On to `O=C(O)COc1ccc(C(=O)c2cccs2)c(Cl)c1Cl` [CE 3624, 4-(2-thienylketo) 2,3-dichloro phenoxyacetic acid], for which the diuretic activity entry in the data set with mice is listed as “diuretic”. The increase in diuresis entry was “doubled” in the data set with mice (25 mg/kg); “quintupled” in the data set on mice (50 mg/kg); “decupled” in data set [1] (injected, of the order of 5 - 30 mg/kg, in most cases, for more than 2 hours); “quintupled” in the data set on non-anaesthetized dogs (per os, 10 mg/kg); “quintupled” with non-anaesthetized dogs (per os, 20 mg/kg, for 3 hours); “strongly increased” in the data set on non-anaesthetized dogs (setting [3]). Besides, in data set [1] (injected, of the order of 5 - 30 mg/kg), the diuretic action result is “extremely substantial and precocious”. In addition, the “duration of decupled diuresis” value in data set [1] (injected, of the order of 5 - 30 mg/kg, in most cases) is “more than 2 hours”. In addition, in the data set with dogs, the “symptoms indicating injurious activity” value is recorded as “no symptoms which would indicate any injurious activity”. In the data set on non-anaesthetized dogs (per os, 20 mg/kg), the “duration of quintupled diuresis” value was 3 h. Besides, the LD50 at 24 h in data set [2] was 225 mg/kg. Also, the 50% lethal dose (LD50) at 48 h in data set [2] stood at 1280 mg/kg.
Regarding `Cc1ccc(C(=O)c2ccc(OCC(=O)O)c(Cl)c2Cl)s1` [CE 3649, 4-[2(5-methylthienyl)keto] 2,3-dichloro phenoxyacetic acid], in the data set with mice, the diuretic activity result is “diuretic” and the “diuretic activity relative to CE 3624” value was “a quarter of that of CE 3624”. For the same molecule, the “symptoms indicating injurious activity” value in the data set on dogs is reported as “no symptoms which would indicate any injurious activity”. For the same molecule, the increase in diuresis result with non-anaesthetized dogs (setting [3]) is recorded as “strongly increased”. In addition, the increase in diuresis entry with non-anaesthetized dogs (per os, same doses as CE 3624 (20 and 10 mg/kg)) is given as “only doubled”. In data set [2], this molecule showed an LD50 at 24 h of 580 mg/kg and an LD50 at 48 h of 2900 mg/kg.
